These are literature values, as cited in patent publication US20120058932A1, “ACTIVE INGREDIENT-PEPTIDE CONSTRUCT FOR EXTRACELLULAR CONCENTRATION” (MAX PLANCK-GESELLSCHAFT ZUR FORDERUNG DER WISSENSCHAFTEN …, priority 2008, published 2012).

For the data set the following is noted: blood cells vs plasma.

Structures are written as SMILES.

Consider `C/C=C/C[C@@H](C)[C@@H](O)[C@H]1C(=O)N[C@@H](CC)C(=O)N(C)CC(=O)N(C)[C@@H](CC(C)C)C(=O)N[C@@H](C(C)C)C(=O)N(C)[C@@H](CC(C)C)C(=O)N[C@@H](C)C(=O)N[C@H](COCCO)C(=O)N(C)[C@@H](CC(C)C)C(=O)N(C)[C@@H](CC(C)C)C(=O)N(C)[C@@H](C(C)C)C(=O)N1C` [SDZ IMM 125], for which the “Concentration in blood cells relative to the surrounding plasma” value is “approximately 8 ×”.
